The target of series [1] is T1, hCEPT1p (Homo sapiens, UniProt Q9Y6K0).
T1 construct: All of the hCEPT1p detected in S. cerevisiae was full length; made in house; host or cells: S. cerevisiae HJ091 (cpt1::LEU2 ept1-), plasmid pAH9, microsomal membranes
T1 sequence (Q9Y6K0 1-416): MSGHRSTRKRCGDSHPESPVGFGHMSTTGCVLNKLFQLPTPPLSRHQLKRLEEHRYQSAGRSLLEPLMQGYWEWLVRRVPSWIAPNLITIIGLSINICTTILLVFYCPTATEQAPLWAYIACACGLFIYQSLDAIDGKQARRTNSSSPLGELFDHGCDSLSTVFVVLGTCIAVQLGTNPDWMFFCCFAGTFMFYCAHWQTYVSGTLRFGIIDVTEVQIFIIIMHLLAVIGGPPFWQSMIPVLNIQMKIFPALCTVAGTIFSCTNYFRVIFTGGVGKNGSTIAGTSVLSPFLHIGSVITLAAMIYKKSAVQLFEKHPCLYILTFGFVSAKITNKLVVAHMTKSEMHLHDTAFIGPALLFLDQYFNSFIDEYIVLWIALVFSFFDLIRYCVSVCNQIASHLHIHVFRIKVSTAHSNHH
The series can be described thus: Choline-/ethanolaminephosphotransferase enzyme assay, microsomal membranes of S. cerevisiae HJ091 expressing hCEPT1. It counts as biochemical. Conditions: for Specific activity with CDP-choline (in words): CDP-choline as donor, synthesis of PAF, acyl-PAF, di10:0 PtdCho; for Enzyme activity, CDP-choline: phosphobase donor CDP-choline; for Enzyme activity, CDP-choline / Enzyme activity, CDP-ethanolamine: diradylglycerol as acceptor substrate, hCEPT1p in S. cerevisiae HJ091 microsomes; for Enzyme activity, CDP-ethanolamine: phosphobase donor CDP-ethanolamine. How it is done:
Diradylglycerols or ceramides were dried under nitrogen gas and resuspended in 0.015% (w/v) Tween 20™ by sonication. […] Assays were incubated at 37° C. for 15 min and activity terminated by the addition of 3 ml CHCl3/ CH3OH (2/1, v/v) followed by 1.5 ml 0.9% (w/v) KCl. Tubes were vortexed and phase separation facilitated by centrifugation at 2000 g for 10 min. The aqueous phase was aspirated and the organic phase was washed twice with 1.5 ml 40% (v/v) CH3OH. An aliquot of the organic phase was dried in a scintillation vial and radioactivity was determined.

Series [2] concerns the target T2, hCEPT2 (Homo sapiens, UniProt Q8WUD6).
T2 construct: A full length cDNA was isolated using the Genetrapper™ system technology; expressed in transfected cells; host or cells: HEK293s cells, plasmid pCMVsport-hCEPT2 (clone from the pCMV-Sport human brain cDNA library), microsomal membranes
T2 sequence (Q8WUD6 2-406): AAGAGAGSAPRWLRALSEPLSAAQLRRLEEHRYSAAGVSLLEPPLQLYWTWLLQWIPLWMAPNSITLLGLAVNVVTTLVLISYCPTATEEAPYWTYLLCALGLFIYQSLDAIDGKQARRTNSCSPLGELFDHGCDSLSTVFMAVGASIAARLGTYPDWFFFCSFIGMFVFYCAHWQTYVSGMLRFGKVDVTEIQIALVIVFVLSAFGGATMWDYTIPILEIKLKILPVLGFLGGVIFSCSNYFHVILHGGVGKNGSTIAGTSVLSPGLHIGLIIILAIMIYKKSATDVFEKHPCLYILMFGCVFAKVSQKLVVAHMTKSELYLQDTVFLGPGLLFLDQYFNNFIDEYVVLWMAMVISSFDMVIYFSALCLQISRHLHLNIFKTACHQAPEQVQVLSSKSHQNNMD
The series can be described thus: Choline-/ethanolaminephosphotransferase activity of microsomes from HEK293s cells overexpressing hCEPT2. The series is classed as biochemical. From the text:
A full length cDNA was isolated using the Genetrapper™ system technology (Life Technologies). A primer corresponding to the most 5′ RACE extneded sequence in hand, […] (SEQ ID NO: 11) was biotinylated using terminal deoxynucleotide transferase and hybridized in solution to a single stranded human brain cDNA library that had been generated by digestion of the library with Gene II protein and exonuclease III. Avidin bound to magnetic beads was used to selectively precipitate the biotinylated probe/hybridized cDNA complex, thus enriching the library for cDNAs complementary to the oligonucleotide used. The single stranded cDNAs were extended using Klenow and E. coli were transformed and screened for positive clones with the end labeled antisense oligo, […], found within the original EST 67440. Plasmid DNA from positive colonies was amplified and hCEPT2 specific inserts confirmed and sized by PCR.
Diradylglycerols or ceramides were dried under nitrogen gas and resuspended in 0.015% (w/v) Tween 20™ by sonication. Unless otherwise indicated, assay buffer contained 100 mM Tris-HCl (pH 8.0), 20 mM MgCl2, 1 mM EDTA, 1 mM diradylglycerol or ceramide (final Tween 20 concentration of 0.00375%, w/v), and 10 μg of microsomal protein. […] Assays were incubated at 37° C. for 15 min and activity terminated by the addition of 3 ml CHCl3/ CH3OH (2/1, v/v) followed by 1.5 ml 0.9% (w/v) KCl. Tubes were vortexed and phase separation facilitated by centrifugation at 2000 g for 10 min. The aqueous phase was aspirated and the organic phase was washed twice with 1.5 ml 40% (v/v) CH3OH. An aliquot of the organic phase was dried in a scintillation vial and radioactivity was determined. Samples were routinely analyzed by thin layer chromatography on silica gel plates in a solvent system of CHCl3/CH3OH/NH4OH/H2) (70/30/4/2, v/v) to confirm the synthesis of PtdCho, PtdEtn, and PAF and their analogues.

“And” between values parts separate entries of the source, which are not always exact repeats. Equal values may be shown once. “Also recorded” adds a separate entry of the source.

Take `CCCCCCCCCCCCCCCCOCC(CO)OC(C)=O` (stereo not drawn) [1-O-16:0/2:0]: the “Specific activity with CDP-choline (in words)” value was “highest specific activities” in series [1] (listed as 1O-16:0/2:0) and “High activities” in series [1] (listed as 16:0/2:0). For the same molecule, the “Enzyme activity, CDP-choline” value in series [1] was determined as 106.0 ± 5.6 nmol/min/mg.

The term Km denotes the substrate concentration at which the rate is half of its maximum. With `NCCOP(=O)(O)OP(=O)(O)OC[C@H]1O[C@@H](n2ccc(N)nc2=O)[C@H](O)[C@@H]1O` [CDP-ethanolamine], the “Vmax(app)” value in series [1] (di18:1 as the diradylglycerol substrate) stood at 12.8 nmol/min/mg. Also, the Km in series [1] (di18:1 as the diradylglycerol substrate, read-out: Km(app)) turned out to be 109 µM.

With `O[C@@H](CS)[C@@H](O)CS` [DTT], the “Effect of DTT on cholinephosphotransferase activity” value in series [1] (DTT 0-5 mM in assay mix, regardless of the diradylglycerol substrate, data not shown) was “insensitive; also recorded: did not affect”.

For the molecule `CCCCCCCC(=O)OC[C@H](CO)OC(=O)CCCCCCC` [di8:0], in series [1], the “Enzyme activity, CDP-choline” value came out at 54.9 ± 6.4 nmol/min/mg and the “Enzyme activity, CDP-ethanolamine” value was 3.1 ± 0.4 nmol/min/mg.

Take `CCCCCCCCCC(=O)OCC(CO)OC(=O)CCCCCCCCC` (stereo not drawn) [di10:0]: in series [1], the “Specific activity with CDP-choline (in words)” value is given as “highest specific activities”; the “Enzyme activity, CDP-choline” value turned out to be 172.5 ± 9.8 nmol/min/mg; the “Enzyme activity, CDP-ethanolamine” value turned out to be 3.7 ± 0.4 nmol/min/mg.

Take `CCCCCCCCCCCC(=O)OCC(CO)OC(=O)CCCCCCCCCCC` (stereo not drawn) [di12:0]: in series [1], the “Enzyme activity, CDP-choline” value came to 27.2 ± 6.9 nmol/min/mg and the “Enzyme activity, CDP-ethanolamine” value is 2.7 ± 0.3 nmol/min/mg.

`CCCCCCCCCCCCCC(=O)OC[C@H](CO)OC(=O)CCCCCCCCCCCCC` [di14:0]: in series [1], the “Enzyme activity, CDP-choline” value came to 6.7 ± 0.2 nmol/min/mg and the “Enzyme activity, CDP-ethanolamine” value came to 3.7 ± 0.1 nmol/min/mg.

As for `CCCCCCCCCCCCCCCC(=O)OC[C@H](CO)OC(=O)CCCCCCCCCCCCCCC` [di16:0], in series [1], the “Enzyme activity, CDP-choline” value is 4.3 ± 0.2 nmol/min/mg and the “Enzyme activity, CDP-ethanolamine” value amounted to 3.5 ± 0.2 nmol/min/mg.

B1: hCEPT2: human choline/ethanolaminephosphotransferase 2, SEQ ID NO:4 (protein)
chain: MAAGAGAGSAPRWLRALSEPLSAAQLRRLEEHRYSAAGVSLLEPPLQLYWTWLLQWIPLWMAPNSITLLGLAVNVVTTLVLISYCPTATEEAPYWTYLLCALGLFIYQSLDAIDGKQARRTNSCSPLGELFDHGCDSLSTVFMAVGASIAARLGTYPDWFFSCSFIGMFVFYCAHWQTYVSGMLRFGKVDVTEIQIALVIVFVLSAFGGATMWDYTIPILEIKLKILPVLGFLGGVIFSCSNYFHVILHGGVGKNGSTIAGTSVLSPGLHIGLIIILAIMIYKKSATDVFEKHPCLYILMFGCVFAKVSQKLVVAHMTKSELYLQDTVFLGPGLLFLDQYFNNFIDEYVVLWMAMVISSFDMVIYFSALCLQISRHLHLNIFKTACHQAPEQVQVLSSKSHQNNMD
For the molecule B1, the “Cholinephosphotransferase activity, mean” value in series [2] (CDP-AA choline, mean of duplicates) is reported as 10.673 nmol/min/mg. In series [2] (CDP-AA choline, single determinations), the Cholinephosphotransferase activity is 10.638 nmol/min/mg and 10.708 nmol/min/mg. Moreover, the “Ethanolaminephosphotransferase activity, mean” value in series [2] (CDP-AA ethanolamine, mean of duplicates) is 2.427 nmol/min/mg. In addition, in series [2] (CDP-AA ethanolamine, single determinations), the Ethanolaminephosphotransferase activity is 2.169 nmol/min/mg and 2.685 nmol/min/mg.

The values are drawn from patent US6451568B1, “Cloning of human choline ethanolaminephospho transferases synthesis of phosphatidyl choline phosphatidyle thanolamine and platelet activating factor” (Dalhousie University, priority 1998, dated 2002).
